Columns and labels:
HT1080 cells = test: Cellular assay, inhibition of 2-HG production in HT1080 cells; format: cell-based; details: Homo sapiens, HT-1080, 48 h
Method: Cells (HT1080 or U87MG) are grown in T125 flasks in DMEM containing 10% FBS, 1× penicillin/streptomycin and 500 ug/mL G418 (present in U87MG cells only). They are harvested by trypsin and seeded into 96 well white bottom plates at a density of 5000 cell/well in 100 ul/well in DMEM with 10% FBS. […] Cells are incubated overnight at 37° C. in 5% CO2. The next day test compounds are made up at 2× the final concentration and 100 ul are added to each cell well. The final concentration of DMSO is 0.2% and the DMSO control wells are plated in row G. The plates are then placed in the incubator for 48 hours. […] The cell plate is placed back in the incubator for another 24 hours. At 72 hours post compound addition, 10 mL/plate of Promega Cell Titer Glo reagent is thawed and mixed. The cell plate is removed from the incubator and allowed to equilibrate to room temperature. Then 100 ul of Promega Cell Titer Glo reagent is added to each well of media. The cell plate is then placed on an orbital shaker for 10 minutes and then allowed to sit at room temperature for 20 minutes. The plate is then read for luminescence with an integration time of 500 ms.

U87MG cells = test: Cellular assay, inhibition of 2-HG production in U87MG cells; format: cell-based
Summary of the method: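 HT1080 or U87MG cells (U87MG kept with 500 ug/mL G418) seeded at 5000 cells/well and treated with compound at 0.2% final DMSO. Incubated 48 h at 37 °C. 2-HG inhibition determined by LC-MS. Viability read by CellTiter-Glo luminescence at 72 h post-dose.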

IDH1 R132C = IDH1 R132C (Homo sapiens (Human), UniProt O75874, R132C); test: In vitro NADPH depletion assay for IDH1m R132C inhibitors; format: biochemical; details: IDH1 R132C enzyme, read-out: IDH R132C IC50
Method: (§1) A test compound is prepared as 10 mM stock in DMSO and diluted to 50× final concentration in DMSO, for a 50 μl reaction mixture. IDH enzyme activity converting alpha-ketoglutarate to 2-hydroxyglutaric acid is measured using a NADPH depletion assay. In the assay the remaining cofactor is measured at the end of the reaction with the addition of a catalytic excess of diaphorase and resazurin, to generate a fluorescent signal in proportion to the amount of NADPH remaining. […] The reaction is started with the addition of 10 μl of Substrate Mix ([…], 5 mM alpha-ketoglutarate, in Assay Buffer) and the mixture is incubated for 90 minutes at room temperature.
The concentration of NADPH and alpha-ketoglutarate in the Substrate Buffer is 20 μM and 1 mM, respectively.

IDH1 R132H = IDH1 R132H (Homo sapiens (Human), UniProt O75874, R132H); test: In vitro NADPH depletion assay for IDH1m R132H inhibitors; format: biochemical; details: IDH1 R132H enzyme, read-out: IDH R132H IC50
Method: as §1

[1] = inhibition of 2-HG production, U87MG cells, 48 hours

Sequence of IDH1 R132C (O75874 whole entry R132C): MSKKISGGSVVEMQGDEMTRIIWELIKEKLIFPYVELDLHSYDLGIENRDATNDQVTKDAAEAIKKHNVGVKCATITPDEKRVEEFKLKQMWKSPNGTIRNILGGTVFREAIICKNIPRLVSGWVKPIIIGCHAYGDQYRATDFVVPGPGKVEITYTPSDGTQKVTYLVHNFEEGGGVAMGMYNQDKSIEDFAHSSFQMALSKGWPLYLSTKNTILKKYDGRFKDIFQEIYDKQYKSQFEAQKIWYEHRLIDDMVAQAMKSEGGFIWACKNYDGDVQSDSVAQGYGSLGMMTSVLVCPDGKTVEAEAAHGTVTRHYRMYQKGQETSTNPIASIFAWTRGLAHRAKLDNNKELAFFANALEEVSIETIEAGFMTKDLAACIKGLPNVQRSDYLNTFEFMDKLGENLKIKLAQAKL
Sequence of IDH1 R132H (O75874 whole entry R132H): as the sequence (O75874 whole entry R132C) above, with C132H counted along it

Molecule	IC50 (HT1080 cells)	IC50 (U87MG cells; Homo sapiens, U-87 MG, 48 h)	IC50 (IDH1 R132C)	IC50 (IDH1 R132H)	IC50 (U87MG cells; [1])
O=C(NC1CC(F)(F)C1)[C@H](c1ccccc1Cl)N(C(=O)[C@@H]1CCC(=O)N1c1cc(C(F)(F)F)ccn1)c1cccc(F)c1 [Compound 40]	100 to 500 nM	100 to 500 nM	–	–	–
O=C(NC1CC(F)(F)C1)[C@H](c1ccccc1Cl)N(C(=O)[C@@H]1COCC(=O)N1c1ncccn1)c1cccc(F)c1 [Compound 45]	100 to 500 nM	100 to 500 nM	–	–	–
O=C(NC1CC(F)(F)C1)[C@H](c1ccccc1Cl)N(C(=O)[C@@H]1CCC(=O)N1c1nccc2ccccc12)c1cccc(F)c1 [Compound 16]	100 to 500 nM	500 to 1000 nM	–	–	–
O=C(NC1CC(F)(F)C1)[C@H](c1ccccc1Cl)N(C(=O)[C@@H]1CCC(=O)N1c1ccc(Cl)cn1)c1cccc(F)c1 [Compound 48]	100 to 500 nM	100 to 500 nM	–	–	–
(2S)—N-(1-(2-Chlorophenyl)-2-((4,4-difluorocyclohexyl)amino)-2-oxoethyl)-1-(4-cyanopyridin-2-yl)-N-(3-fluoro-5-(methylsulfonyl)phenyl)-5-oxopyrrolidine-2-carboxamide [Compound 105]	–	–	< 100 nM	< 100 nM	< 100 nM
(S)—N—((S)-1-(2-Chlorophenyl)-2-((3,3-difluorocyclobutyl)amino)-2-oxoethyl)-1-(4-cyanopyridin-2-yl)-N-(1H-indazol-6-yl)-5-oxopyrrolidine-2-carboxamide [Compound 205]	–	–	< 100 nM	< 100 nM	< 100 nM
O=C(NC1CC(F)C1)[C@H](c1ccccc1Cl)N(C(=O)[C@@H]1CCC(=O)N1c1ncccn1)c1cccc(F)c1 (some centres unmarked) [Compound 49]	100 to 500 nM	100 to 500 nM	–	–	–
N#Cc1cccc(N2C(=O)OC[C@H]2C(=O)N(c2cccc3cn[nH]c23)[C@H](C(=O)NC2CCC(F)(F)CC2)c2ccccc2Cl)c1 [Compound 142, (S)—N—((S)-1-(2-Chlorophenyl)-2-(4,4-difluorocyclohexylamino)-2-oxoethyl)-3-(3-cyanophenyl)-N-(1H-indazol-7-yl)-2-oxooxazolidine-4-carboxamide]	–	–	< 100 nM	< 100 nM	< 100 nM
(S)—N—((S)-1-(2-Chlorophenyl)-2-((3,3-difluorocyclobutyl)amino)-2-oxoethyl)-1-(4-cyanopyrimidin-2-yl)-N-(3-fluoro-5-(methylsulfonyl)phenyl)-5-oxopyrrolidine-2-carboxamide [Compound 109]	–	–	< 100 nM	< 100 nM	100 to 500 nM
N#Cc1cccc(N(C(=O)[C@@H]2CCC(=O)N2c2nccc(C#N)n2)[C@H](C(=O)NC2CCC(F)(F)CC2)c2ccccc2Cl)c1 [Compound 178, (S)—N—((S)-1-(2-Chlorophenyl)-2-((4,4-difluorocyclohexyl)amino)-2-oxoethyl)-N-(3-cyanophenyl)-1-(4-cyanopyrimidin-2-yl)-5-oxopyrrolidine-2-carboxamide]	100 to 500 nM	< 100 nM	–	–	–
O=C(NC1CC(F)(F)C1)[C@H](c1ccccc1Cl)N(C(=O)[C@@H]1CCC(=O)N1c1ccccn1)c1cccc(F)c1 [Compound 5]	–	100 to 500 nM	< 100 nM	< 100 nM	–
Cc1cccc(N2C(=O)CC[C@H]2C(=O)N(c2cccc(F)c2)[C@H](C(=O)NC2CC(F)(F)C2)c2ccccc2Cl)n1 [Compound 28]	< 100 nM	–	–	–	–
N#Cc1ccnc(N2C(=O)OCC[C@H]2C(=O)N(c2cncc(F)c2)C(C(=O)NC2CC(F)(F)C2)c2ccccc2F)c1 (stereo in doubt) [Compound 302, (S)-3-(4-cyanopyridin-2-yl)-N—((R)-2-(3,3-difluorocyclobutylamino)-1-(2-fluorophenyl)-2-oxoethyl)-N-(5-fluoropyridin-3-yl)-2-oxo-1,3-oxazinane-4-carboxamide]	< 100 nM	–	–	< 100 nM	–
COc1cccnc1N1C(=O)CC[C@H]1C(=O)N(c1cccc(F)c1)[C@H](C(=O)NC1CC(F)(F)C1)c1ccccc1Cl [Compound 17]	500 to 1000 nM	1000 to 2000 nM	–	–	–
N#Cc1ccnc(N2C(=O)OCC[C@H]2C(=O)N(c2cncc(F)c2)C(C(=O)NC2CC(F)(F)C2)c2ccccc2)c1 (stereo in doubt) [Compound 301, (S)-3-(4-cyanopyridin-2-yl)-N—((R)-2-((3,3-difluorocyclobutyl)amino)-2-oxo-1-phenylethyl)-N-(5-fluoropyridin-3-yl)-2-oxo-1,3-oxazinane-4-carboxamide]	< 100 nM	–	–	< 100 nM	–
Cc1cccnc1N1C(=O)CC[C@H]1C(=O)N(c1cccc(F)c1)[C@H](C(=O)NC1CC(F)(F)C1)c1ccccc1Cl [Compound 15]	100 to 500 nM	100 to 500 nM	–	–	–
N#Cc1ccnc(N2C(=O)CC[C@H]2C(=O)N(c2cccc(F)c2)[C@H](C(=O)NC2CC(F)(F)C2)c2c(Cl)cccc2Cl)c1 (single isomer, unassigned) [Compound 63]	< 100 nM	< 100 nM	–	–	–

Reference: patent US10689414B2 (Agios Pharmaceuticals, Inc., priority 2013, dated 2020)
